Experiments:
[1] = Behaviour of the bioactive in distilled water at 37° C. without solubilizer; type: physicochemical; details: 2 grams in 200 ml distilled water, no solubilizer
Procedure: (§1) • A. Two beakers each containing 200 ml distilled water (37° C.) were taken. • B. To each beaker, 2 grams commercially available curcuminoids (Curcumin C3 Complex®) was added and gently mixed. […] To the first beaker, 0.35 gram of Bacopa glycosides including 25% w/w to 75% w/w of total Bacosides (Bacopin®) was added and gently mixed for about 15 minutes. […] This corresponded to a Critical Micelle Concentration (CMC) of 17.5% • D. To the second beaker, 0.40 gram of Centella glycosides including at least 8% w/w of total triterpenes (Centellin®) was added and gently mixed for about 15 minutes. […] This corresponded to Critical Micelle Concentration (CMC) of 20.0%.
(§2) • A. Five beakers each containing 200 ml distilled water at 37° C. were taken. To 3 beakers were added 2 gm of bioactive compounds forskolin (Forslean® 95%), boswellic acids (Boswellin® 70%) and pterostilbene 99% respectively. To the other 2 beakers were added 2 gm of Saw Palmetto extract 85% and Ginger Soft extract SCFE 35% respectively. […] The Critical Micelle Concentration (CMC) for each system was determined (Table A; FIGS. 3A, 3B, 3C, 3D and 3E)
(§3) • A. To a beaker containing 200 ml distilled water (37° C.) was added 2 grams of tetrahydrocurcuminoids (C3 Reduct®). […] The majority (˜70%) of tetrahydrocurcuminoids was not observable at the bottom of the beaker anymore due to formation of emulsion (FIG. 4)

[2] = type: physicochemical
Procedure: as §1, §2, §3

Structure (SMILES)	solubility in distilled water (observation) [1]	CMC % (wt/wt) [2]
C=C[C@@]1(C)CC(=O)[C@]2(O)[C@@]3(C)[C@@H](O)CCC(C)(C)[C@@H]3[C@H](O)[C@H](OC(C)=O)[C@@]2(C)O1 [ForsLean 95%, forskolin]	did not go into solution	20% (wt/wt)
COc1cc(/C=C/c2ccc(O)cc2)cc(OC)c1 [Pterostilbene 99%, pterostilbene]	did not go into solution	14.50% (wt/wt)

From patent US20140303258A1, “Method of solubilizing insoluble bioactive compounds using triterpene glycosides and compositions thereof” (priority 2013, published 2014)
